# Test results published in US11826399B2, “Chlorotoxin agents and uses thereof” (Eisai Inc., priority 2017, dated 2023).
# Several values for one entry are separate records, joined by “and”; a condition that tells them apart may be missing. Equal entries are not always repeated.
# Experiment: Plasma and tissue distribution of Cryptophycin Payload and Cryptophycin Metabolite 1 after Cryptophycin Payload alone or with CTX in PC-3 xenograft nude mice (LC-MS/MS)
# Assay type: in vivo, mouse
# Description: For the present experiment, materials, methods, drugs and model were as described in Example 21. […] Following intravenous administration, whole blood samples were collected at predetermined time points via cardiac puncture (n=3 mice per time point). Blood samples were centrifuged to obtain plasma and subsequently stored at […] or lower pending analysis. Additionally, at each time point, kidney, liver, small intestine, brain, heart, and tumor were harvested by removing entire specimen from surrounding tissues (only a portion of liver and small intestine were removed). After removal, tissues were rinsed with normal saline solution (contents of small intestine were emptied) and blotted dry with clean adsorptive tissue. Once dried, the specimens were weighed and stored at −20° C. or lower pending analysis. […] Pharmacokinetic (PK) parameters were calculated. Mean plasma and tissue concentrations were used to calculate mean PK parameters. Skin and skeletal muscle which were not assessed due to difficulty of homogenization.
# Vehicle for single dose group was 10% ethanol, 5% Tween 80, 85% saline. Vehicle for combination treatment was 5% ethanol, 2.5% Tween 80, 92.5% saline.
# [1] = Brain, Payload 0.4 mg/kg + CTX 16 mg/kg IV
# [2] = Brain, Payload 0.4 mg/kg IV alone
# [3] = Heart, Payload 0.4 mg/kg + CTX 16 mg/kg IV
# [4] = Heart, Payload 0.4 mg/kg IV alone
# [5] = Kidney, Payload 0.4 mg/kg + CTX 16 mg/kg IV
# [6] = Kidney, Payload 0.4 mg/kg IV alone
# [7] = Liver, Payload 0.4 mg/kg + CTX 16 mg/kg IV
# [8] = Liver, Payload 0.4 mg/kg IV alone
# [9] = Payload 0.4 mg/kg + CTX 16 mg/kg IV, 0.083 h
# [10] = Payload 0.4 mg/kg + CTX 16 mg/kg IV, 0.5 h
# [11] = Payload 0.4 mg/kg + CTX 16 mg/kg IV, 1 h
# [12] = Payload 0.4 mg/kg + CTX 16 mg/kg IV, 2 h
# [13] = Payload 0.4 mg/kg + CTX 16 mg/kg IV, 6 h
# [14] = Payload 0.4 mg/kg + CTX 16 mg/kg IV, 24 h
# [15] = Payload 0.4 mg/kg IV alone, 0.083 h
# [16] = Payload 0.4 mg/kg IV alone, 0.5 h
# [17] = Payload 0.4 mg/kg IV alone, 1 h
# [18] = Payload 0.4 mg/kg IV alone, 2 h
# [19] = Payload 0.4 mg/kg IV alone, 6 h
# [20] = Payload 0.4 mg/kg IV alone, 24 h
# [21] = Plasma, Payload 0.4 mg/kg + CTX 16 mg/kg IV
# [22] = Plasma, Payload 0.4 mg/kg IV alone
# [23] = Small Intestine, Payload 0.4 mg/kg + CTX 16 mg/kg IV
# [24] = Small Intestine, Payload 0.4 mg/kg IV alone
# [25] = Tumor, Payload 0.4 mg/kg + CTX 16 mg/kg IV
# [26] = Tumor, Payload 0.4 mg/kg IV alone
compound,measurement,setting,value
COc1ccc(CC2NC(=O)C=CCC(C(C)C3OC3c3ccc(CN4CCN(CCC(C)(C)SC)CC4)cc3)OC(=O)C(CC(C)C)NC(=O)C(C)(C)CNC2=O)cc1Cl (stereo not drawn) [Cryptophycin Metabolite 1],AUC(0-t) of Cryptophycin Metabolite 1,[1],5.38 ng·h/g
same,tmax of Cryptophycin Metabolite 1,[1],2.00 h
same,AUC(0-t) of Cryptophycin Metabolite 1,[2],4.42 ng·h/g
same,tmax of Cryptophycin Metabolite 1,[2],0.08 h
same,AUC(0-inf) of Cryptophycin Metabolite 1,[3],620 ng·h/g
same,AUC(0-t) of Cryptophycin Metabolite 1,[3],616 ng·h/g
same,t1/2 of Cryptophycin Metabolite 1,[3],3.17 h
same,tmax of Cryptophycin Metabolite 1,[3],0.08 h
same,AUC(0-inf) of Cryptophycin Metabolite 1,[4],396 ng·h/g
same,AUC(0-t) of Cryptophycin Metabolite 1,[4],394 ng·h/g
same,t1/2 of Cryptophycin Metabolite 1,[4],3.06 h
same,tmax of Cryptophycin Metabolite 1,[4],0.08 h
same,AUC(0-t) of Cryptophycin Metabolite 1,[5],2720 ng·h/g
same,tmax of Cryptophycin Metabolite 1,[5],2.00 h
same,AUC(0-inf) of Cryptophycin Metabolite 1,[6],1750 ng·h/g
same,AUC(0-t) of Cryptophycin Metabolite 1,[6],1720 ng·h/g
same,t1/2 of Cryptophycin Metabolite 1,[6],3.99 h
same,tmax of Cryptophycin Metabolite 1,[6],0.50 h
same,AUC(0-inf) of Cryptophycin Metabolite 1,[7],2930 ng·h/g
same,AUC(0-t) of Cryptophycin Metabolite 1,[7],2900 ng·h/g
same,t1/2 of Cryptophycin Metabolite 1,[7],4.04 h
same,tmax of Cryptophycin Metabolite 1,[7],0.08 h
same,AUC(0-inf) of Cryptophycin Metabolite 1,[8],1870 ng·h/g
same,AUC(0-t) of Cryptophycin Metabolite 1,[8],1820 ng·h/g
same,t1/2 of Cryptophycin Metabolite 1,[8],4.77 h
same,tmax of Cryptophycin Metabolite 1,[8],0.08 h
same,"Concentration of Cryptophycin Metabolite 1, Brain, Mean",[9],0.622 ng/g
same,"Concentration of Cryptophycin Metabolite 1, Heart, Mean",[9],107 ng/g
same,"Concentration of Cryptophycin Metabolite 1, Kidney, Mean",[9],115 ng/g
same,"Concentration of Cryptophycin Metabolite 1, Liver, Mean",[9],1540 ng/g
same,"Concentration of Cryptophycin Metabolite 1, Plasma, Mean",[9],10.8 ng/mL
same,"Concentration of Cryptophycin Metabolite 1, Small Intestine, Mean",[9],10.4 ng/g
same,"Concentration of Cryptophycin Metabolite 1, Tumor, Mean",[9],2.61 ng/g
same,"Concentration of Cryptophycin Metabolite 1, Brain, Mean",[10],0.641 ng/g
same,"Concentration of Cryptophycin Metabolite 1, Heart, Mean",[10],94.9 ng/g
same,"Concentration of Cryptophycin Metabolite 1, Kidney, Mean",[10],252 ng/g
same,"Concentration of Cryptophycin Metabolite 1, Liver, Mean",[10],1000 ng/g
same,"Concentration of Cryptophycin Metabolite 1, Plasma, Mean",[10],8.10 ng/mL
same,"Concentration of Cryptophycin Metabolite 1, Small Intestine, Mean",[10],18.5 ng/g
same,"Concentration of Cryptophycin Metabolite 1, Tumor, Mean",[10],2.69 ng/g
same,"Concentration of Cryptophycin Metabolite 1, Brain, Mean",[11],1.07 ng/g
same,"Concentration of Cryptophycin Metabolite 1, Heart, Mean",[11],77.1 ng/g
same,"Concentration of Cryptophycin Metabolite 1, Kidney, Mean",[11],285 ng/g
same,"Concentration of Cryptophycin Metabolite 1, Liver, Mean",[11],1370 ng/g
same,"Concentration of Cryptophycin Metabolite 1, Plasma, Mean",[11],12.4 ng/mL
same,"Concentration of Cryptophycin Metabolite 1, Small Intestine, Mean",[11],26.9 ng/g
same,"Concentration of Cryptophycin Metabolite 1, Tumor, Mean",[11],3.90 ng/g
same,"Concentration of Cryptophycin Metabolite 1, Brain, Mean",[12],1.09 ng/g
same,"Concentration of Cryptophycin Metabolite 1, Heart, Mean",[12],87.9 ng/g
same,"Concentration of Cryptophycin Metabolite 1, Kidney, Mean",[12],370 ng/g
same,"Concentration of Cryptophycin Metabolite 1, Liver, Mean",[12],335 ng/g
same,"Concentration of Cryptophycin Metabolite 1, Plasma, Mean",[12],5.12 ng/mL
same,"Concentration of Cryptophycin Metabolite 1, Small Intestine, Mean",[12],21.8 ng/g
same,"Concentration of Cryptophycin Metabolite 1, Tumor, Mean",[12],9.66 ng/g
same,"Concentration of Cryptophycin Metabolite 1, Brain, Mean",[13],0.725 ng/g
same,"Concentration of Cryptophycin Metabolite 1, Heart, Mean",[13],43.7 ng/g
same,"Concentration of Cryptophycin Metabolite 1, Kidney, Mean",[13],191 ng/g
same,"Concentration of Cryptophycin Metabolite 1, Liver, Mean",[13],53.6 ng/g
same,"Concentration of Cryptophycin Metabolite 1, Plasma, Mean",[13],2.15 ng/mL
same,"Concentration of Cryptophycin Metabolite 1, Small Intestine, Mean",[13],14.8 ng/g
same,"Concentration of Cryptophycin Metabolite 1, Tumor, Mean",[13],12.2 ng/g
same,"Concentration of Cryptophycin Metabolite 1, Brain, Mean",[14],BLQ
same,"Concentration of Cryptophycin Metabolite 1, Heart, Mean",[14],0.763 ng/g
same,"Concentration of Cryptophycin Metabolite 1, Kidney, Mean",[14],9.65 ng/g
same,"Concentration of Cryptophycin Metabolite 1, Liver, Mean",[14],5.15 ng/g
same,"Concentration of Cryptophycin Metabolite 1, Plasma, Mean",[14],0.384 ng/mL
same,"Concentration of Cryptophycin Metabolite 1, Small Intestine, Mean",[14],4.02 ng/g
same,"Concentration of Cryptophycin Metabolite 1, Tumor, Mean",[14],10.8 ng/g
same,"Concentration of Cryptophycin Metabolite 1, Brain, Mean",[15],1.46 ng/g
same,"Concentration of Cryptophycin Metabolite 1, Heart, Mean",[15],87.1 ng/g
same,"Concentration of Cryptophycin Metabolite 1, Kidney, Mean",[15],225 ng/g
same,"Concentration of Cryptophycin Metabolite 1, Liver, Mean",[15],2710 ng/g
same,"Concentration of Cryptophycin Metabolite 1, Plasma, Mean",[15],23.6 ng/mL
same,"Concentration of Cryptophycin Metabolite 1, Small Intestine, Mean",[15],22.2 ng/g
same,"Concentration of Cryptophycin Metabolite 1, Tumor, Mean",[15],2.36 ng/g
same,"Concentration of Cryptophycin Metabolite 1, Brain, Mean",[16],0.895 ng/g
same,"Concentration of Cryptophycin Metabolite 1, Heart, Mean",[16],80.2 ng/g
same,"Concentration of Cryptophycin Metabolite 1, Kidney, Mean",[16],361 ng/g
same,"Concentration of Cryptophycin Metabolite 1, Liver, Mean",[16],499 ng/g
same,"Concentration of Cryptophycin Metabolite 1, Plasma, Mean",[16],8.37 ng/mL
same,"Concentration of Cryptophycin Metabolite 1, Small Intestine, Mean",[16],29.7 ng/g
same,"Concentration of Cryptophycin Metabolite 1, Tumor, Mean",[16],3.27 ng/g
same,"Concentration of Cryptophycin Metabolite 1, Brain, Mean",[17],0.983 ng/g
same,"Concentration of Cryptophycin Metabolite 1, Heart, Mean",[17],70.3 ng/g
same,"Concentration of Cryptophycin Metabolite 1, Kidney, Mean",[17],294 ng/g
same,"Concentration of Cryptophycin Metabolite 1, Liver, Mean",[17],310 ng/g
same,"Concentration of Cryptophycin Metabolite 1, Plasma, Mean",[17],6.46 ng/mL
same,"Concentration of Cryptophycin Metabolite 1, Small Intestine, Mean",[17],24.3 ng/g
same,"Concentration of Cryptophycin Metabolite 1, Tumor, Mean",[17],3.41 ng/g
same,"Concentration of Cryptophycin Metabolite 1, Brain, Mean",[18],0.887 ng/g
same,"Concentration of Cryptophycin Metabolite 1, Heart, Mean",[18],52.8 ng/g
same,"Concentration of Cryptophycin Metabolite 1, Kidney, Mean",[18],249 ng/g
same,"Concentration of Cryptophycin Metabolite 1, Liver, Mean",[18],194 ng/g
same,"Concentration of Cryptophycin Metabolite 1, Plasma, Mean",[18],4.32 ng/mL
same,"Concentration of Cryptophycin Metabolite 1, Small Intestine, Mean",[18],23.1 ng/g
same,"Concentration of Cryptophycin Metabolite 1, Tumor, Mean",[18],4.01 ng/g
same,"Concentration of Cryptophycin Metabolite 1, Brain, Mean",[19],0.412 ng/g
same,"Concentration of Cryptophycin Metabolite 1, Heart, Mean",[19],25.4 ng/g
same,"Concentration of Cryptophycin Metabolite 1, Kidney, Mean",[19],91.2 ng/g
same,"Concentration of Cryptophycin Metabolite 1, Liver, Mean",[19],37.2 ng/g
same,"Concentration of Cryptophycin Metabolite 1, Plasma, Mean",[19],1.86 ng/mL
same,"Concentration of Cryptophycin Metabolite 1, Small Intestine, Mean",[19],26.1 ng/g
same,"Concentration of Cryptophycin Metabolite 1, Tumor, Mean",[19],5.33 ng/g
same,"Concentration of Cryptophycin Metabolite 1, Brain, Mean",[20],BLQ
same,"Concentration of Cryptophycin Metabolite 1, Heart, Mean",[20],0.387 ng/g
same,"Concentration of Cryptophycin Metabolite 1, Kidney, Mean",[20],4.88 ng/g
same,"Concentration of Cryptophycin Metabolite 1, Liver, Mean",[20],7.89 ng/g
same,"Concentration of Cryptophycin Metabolite 1, Plasma, Mean",[20],0.141 ng/mL
same,"Concentration of Cryptophycin Metabolite 1, Small Intestine, Mean",[20],1.50 ng/g
same,"Concentration of Cryptophycin Metabolite 1, Tumor, Mean",[20],4.91 ng/g
same,AUC(0-inf) of Cryptophycin Metabolite 1,[21],53.2 ng·h/mL
same,AUC(0-t) of Cryptophycin Metabolite 1,[21],49.9 ng·h/mL
same,Cmax of Cryptophycin Metabolite 1,[21],12.4 ng/mL
same,t1/2 of Cryptophycin Metabolite 1,[21],6.24 h
same,tmax of Cryptophycin Metabolite 1,[21],1.0 h
same,AUC(0-inf) of Cryptophycin Metabolite 1,[22],40.7 ng·h/mL
same,AUC(0-t) of Cryptophycin Metabolite 1,[22],39.8 ng·h/mL
same,Cmax of Cryptophycin Metabolite 1,[22],23.6 ng/mL
same,t1/2 of Cryptophycin Metabolite 1,[22],4.57 h
same,tmax of Cryptophycin Metabolite 1,[22],0.083 h and 0.08 h
same,AUC(0-inf) of Cryptophycin Metabolite 1,[23],316 ng·h/g
same,AUC(0-t) of Cryptophycin Metabolite 1,[23],263 ng·h/g
same,t1/2 of Cryptophycin Metabolite 1,[23],9.18 h
same,tmax of Cryptophycin Metabolite 1,[23],1.00 h
same,AUC(0-inf) of Cryptophycin Metabolite 1,[24],314 ng·h/g
same,AUC(0-t) of Cryptophycin Metabolite 1,[24],302 ng·h/g
same,t1/2 of Cryptophycin Metabolite 1,[24],5.15 h
same,tmax of Cryptophycin Metabolite 1,[24],0.50 h
same,AUC(0-t) of Cryptophycin Metabolite 1,[25],259 ng·h/g
same,tmax of Cryptophycin Metabolite 1,[25],6.00 h
same,AUC(0-t) of Cryptophycin Metabolite 1,[26],117 ng·h/g
same,tmax of Cryptophycin Metabolite 1,[26],6.00 h
